The numbers were not newly measured in patent US20250345266A1, “READY-TO-INFUSE OXYTOCIN COMPOSITIONS” (AMNEAL PHARMACEUTICALS LLC, priority 2024, published 2025), which cites them from elsewhere.

SMILES strings stand for the structures.

With `CC[C@H](C)[C@@H]1NC(=O)[C@H](Cc2ccc(O)cc2)NC(=O)[C@@H](N)CSSC[C@@H](C(=O)N2CCC[C@H]2C(=O)N[C@@H](CC(C)C)C(=O)NCC(N)=O)NC(=O)[C@H](CC(N)=O)NC(=O)[C@H](CCC(N)=O)NC1=O` [Oxytocin], the half-life result is on record as “about 3 minutes”.
